The record followed here is patent publication US11420969B2 (Exonate Limited, priority 2017, dated 2022).

Assay [1] concerns the target T1, CYP2D6 (Homo sapiens, UniProt P10635).
T1 construct: from tissue; host or cells: human liver microsomes
The assay can be described thus: biochemical. The format is in vitro ADME. On the procedure: (§1) 158 μL of Human Liver Microsomes working stock solution is added to a reaction plate (0.253 mg/mL, 158 μL/well). 2 μL of test compound/Positive Inhibitor working solutions is then added to the reaction plate (2 μL/well). For control, 2 μL of Acetonitrile (ACN) containing DMSO (without inhibitor) is added to the reaction plate. 20 μL of substrate pool is added to all the wells of the reaction plate. The samples are mixed in a vortexer and pre-incubated at 37° C. for 20 min. The NADPH solution is pre-warmed at 37° C. for 5 min. 20 μL of pre-warmed NADPH solution is added to the reaction plate and then incubated at 37° C. for 10 min. The reaction is terminated by adding cold ACN (200 μL/well) to the reaction mixture and centrifuging at 4,000 rpm for 20 minutes. After centrifugation, supernatant is separated and analyzed by LC-MS/MS.
(§2) % inhibition and IC50 are calculated using Graphpad Prism software.

In assay [2] the target is T2, CYP2C19 (Homo sapiens, UniProt P33261).
T2 construct: from tissue; host or cells: human liver microsomes
T2 sequence (P33261 whole entry): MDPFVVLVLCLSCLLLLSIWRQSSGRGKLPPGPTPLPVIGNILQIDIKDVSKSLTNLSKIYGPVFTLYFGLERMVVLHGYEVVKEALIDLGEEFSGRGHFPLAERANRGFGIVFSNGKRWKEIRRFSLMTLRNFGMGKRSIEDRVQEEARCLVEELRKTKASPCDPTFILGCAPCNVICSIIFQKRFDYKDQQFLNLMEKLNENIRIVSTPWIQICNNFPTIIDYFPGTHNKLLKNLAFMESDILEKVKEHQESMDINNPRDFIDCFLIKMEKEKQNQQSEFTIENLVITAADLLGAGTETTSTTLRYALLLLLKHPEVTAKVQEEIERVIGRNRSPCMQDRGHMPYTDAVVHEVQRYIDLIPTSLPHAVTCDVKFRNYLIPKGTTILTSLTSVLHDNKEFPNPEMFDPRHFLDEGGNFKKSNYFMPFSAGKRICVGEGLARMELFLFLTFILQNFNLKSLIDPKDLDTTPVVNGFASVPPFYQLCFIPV
The assay can be described thus: CYP inhibition assay, human liver microsomes, substrate S-mephenytoin. It counts as in vitro ADME. As to conditions: human liver microsomes, 10 min incubation, LC-MS/MS; read-out: CYP Inhibition Activity (IC50/nM) CYP2C19. On the procedure: as §1, with “2” for “158 μL of Human Liver Microsomes working stock solution is added to a reaction plate (0.253 mg/mL, 158 μL/well). 2”
as §2
For orientation: Liver microsomes are vesicles of endoplasmic reticulum, rich in cytochrome P450 enzymes.

The target in assay [3] is SRPK1 (Homo sapiens, UniProt Q96SB4). Put plainly: In vitro SRPK1 assay (Kinase-Glo). It counts as biochemical. (In general: In Kinase-Glo more light means more ATP remaining.)
Chain of SRPK1 (Q96SB4 whole entry, species assumed): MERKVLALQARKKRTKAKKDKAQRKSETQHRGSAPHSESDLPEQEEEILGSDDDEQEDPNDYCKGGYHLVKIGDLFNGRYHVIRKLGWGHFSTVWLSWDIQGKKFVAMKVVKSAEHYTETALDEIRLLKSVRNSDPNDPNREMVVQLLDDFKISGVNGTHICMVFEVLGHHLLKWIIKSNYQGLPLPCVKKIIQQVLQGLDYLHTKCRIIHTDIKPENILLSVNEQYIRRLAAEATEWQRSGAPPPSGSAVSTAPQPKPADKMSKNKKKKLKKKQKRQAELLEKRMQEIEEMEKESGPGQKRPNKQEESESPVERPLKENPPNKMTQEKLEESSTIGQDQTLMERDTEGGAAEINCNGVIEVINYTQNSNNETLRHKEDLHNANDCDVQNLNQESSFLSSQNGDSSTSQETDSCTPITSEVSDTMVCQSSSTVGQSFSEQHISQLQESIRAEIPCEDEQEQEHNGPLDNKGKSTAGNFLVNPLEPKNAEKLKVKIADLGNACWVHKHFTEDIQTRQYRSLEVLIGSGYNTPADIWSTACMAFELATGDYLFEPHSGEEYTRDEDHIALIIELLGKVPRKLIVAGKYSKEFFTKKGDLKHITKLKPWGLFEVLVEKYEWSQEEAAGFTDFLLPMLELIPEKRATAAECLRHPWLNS
The target of assay [4] is T3, CYP3A4 (Homo sapiens, UniProt P08684).
T3 construct: from tissue; host or cells: human liver microsomes
T3 sequence (P08684 whole entry): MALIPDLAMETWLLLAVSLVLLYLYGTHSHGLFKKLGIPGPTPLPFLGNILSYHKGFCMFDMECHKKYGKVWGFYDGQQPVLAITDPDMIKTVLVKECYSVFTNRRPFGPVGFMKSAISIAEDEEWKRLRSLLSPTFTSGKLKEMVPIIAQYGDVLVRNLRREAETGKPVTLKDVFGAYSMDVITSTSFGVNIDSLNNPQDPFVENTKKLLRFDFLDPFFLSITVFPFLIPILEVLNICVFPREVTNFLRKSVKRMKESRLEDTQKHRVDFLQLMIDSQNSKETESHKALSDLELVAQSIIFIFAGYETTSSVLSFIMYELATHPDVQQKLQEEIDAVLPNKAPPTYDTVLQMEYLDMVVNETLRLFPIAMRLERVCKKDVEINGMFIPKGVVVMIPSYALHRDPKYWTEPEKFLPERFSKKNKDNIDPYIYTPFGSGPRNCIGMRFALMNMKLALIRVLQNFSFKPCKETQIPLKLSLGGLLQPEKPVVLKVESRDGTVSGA
The assay can be described thus: CYP inhibition assay, human liver microsomes, substrate midazolam. It counts as in vitro ADME. The note with it: human liver microsomes, 10 min incubation, LC-MS/MS; read-out: CYP Inhibition Activity (IC50/nM) CYP3A4. On the procedure: as §1, with “2” for “158 μL of Human Liver Microsomes working stock solution is added to a reaction plate (0.253 mg/mL, 158 μL/well). 2”
as §2

Assay [5] deals with T4, CYP1A2 (Homo sapiens, UniProt P05177).
T4 construct: from tissue; host or cells: human liver microsomes
T4 sequence (P05177 1-516): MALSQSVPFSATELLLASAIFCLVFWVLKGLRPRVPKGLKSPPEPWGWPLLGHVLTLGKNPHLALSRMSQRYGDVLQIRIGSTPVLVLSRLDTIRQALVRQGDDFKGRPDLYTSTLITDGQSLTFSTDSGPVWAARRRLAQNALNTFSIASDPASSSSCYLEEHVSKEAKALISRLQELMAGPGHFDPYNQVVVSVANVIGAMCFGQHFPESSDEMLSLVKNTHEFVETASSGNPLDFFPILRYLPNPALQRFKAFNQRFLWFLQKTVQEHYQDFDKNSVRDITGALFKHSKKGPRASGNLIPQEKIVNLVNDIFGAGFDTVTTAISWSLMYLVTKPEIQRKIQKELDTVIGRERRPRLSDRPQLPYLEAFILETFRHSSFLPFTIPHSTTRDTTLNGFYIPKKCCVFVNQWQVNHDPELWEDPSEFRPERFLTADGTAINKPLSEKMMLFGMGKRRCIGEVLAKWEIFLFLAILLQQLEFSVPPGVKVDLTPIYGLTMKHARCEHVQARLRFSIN
The assay can be described thus: CYP inhibition assay, human liver microsomes, substrate tacrine. The note with it: human liver microsomes, 10 min incubation, LC-MS/MS; read-out: CYP Inhibition Activity (IC50/nM) CYP1A2. The format is in vitro ADME. On the procedure: as §1, with “2” for “158 μL of Human Liver Microsomes working stock solution is added to a reaction plate (0.253 mg/mL, 158 μL/well). 2”
as §2

In assay [6] the target is T5, CYP2C9 (Homo sapiens, UniProt P11712).
T5 construct: from tissue; host or cells: human liver microsomes
T5 sequence (P11712 whole entry): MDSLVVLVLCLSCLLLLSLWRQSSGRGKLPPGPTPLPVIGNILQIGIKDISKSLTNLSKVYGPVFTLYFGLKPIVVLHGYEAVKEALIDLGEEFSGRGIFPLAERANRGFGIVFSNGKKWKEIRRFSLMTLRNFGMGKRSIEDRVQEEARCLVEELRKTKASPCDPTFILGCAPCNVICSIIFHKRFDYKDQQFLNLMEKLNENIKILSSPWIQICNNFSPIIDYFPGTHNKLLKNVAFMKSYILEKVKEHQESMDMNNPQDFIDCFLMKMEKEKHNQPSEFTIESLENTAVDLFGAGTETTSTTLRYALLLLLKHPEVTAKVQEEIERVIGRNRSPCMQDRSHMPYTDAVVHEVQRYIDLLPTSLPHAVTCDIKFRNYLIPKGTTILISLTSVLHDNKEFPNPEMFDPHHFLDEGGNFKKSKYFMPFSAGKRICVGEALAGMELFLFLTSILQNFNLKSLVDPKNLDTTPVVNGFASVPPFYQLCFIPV
The assay can be described thus: CYP inhibition assay, human liver microsomes, substrate diclofenac. It counts as in vitro ADME. As to conditions: human liver microsomes, 10 min incubation, LC-MS/MS; read-out: CYP Inhibition Activity (IC50/nM) CYP2C9. Here is the method:
as §1, with “2” for “158 μL of Human Liver Microsomes working stock solution is added to a reaction plate (0.253 mg/mL, 158 μL/well). 2”
as §2

pIC50: −log10 of the molar value. A value given as a limit tells only on which side of the number the result lay.

T1 sequence (P10635 whole entry): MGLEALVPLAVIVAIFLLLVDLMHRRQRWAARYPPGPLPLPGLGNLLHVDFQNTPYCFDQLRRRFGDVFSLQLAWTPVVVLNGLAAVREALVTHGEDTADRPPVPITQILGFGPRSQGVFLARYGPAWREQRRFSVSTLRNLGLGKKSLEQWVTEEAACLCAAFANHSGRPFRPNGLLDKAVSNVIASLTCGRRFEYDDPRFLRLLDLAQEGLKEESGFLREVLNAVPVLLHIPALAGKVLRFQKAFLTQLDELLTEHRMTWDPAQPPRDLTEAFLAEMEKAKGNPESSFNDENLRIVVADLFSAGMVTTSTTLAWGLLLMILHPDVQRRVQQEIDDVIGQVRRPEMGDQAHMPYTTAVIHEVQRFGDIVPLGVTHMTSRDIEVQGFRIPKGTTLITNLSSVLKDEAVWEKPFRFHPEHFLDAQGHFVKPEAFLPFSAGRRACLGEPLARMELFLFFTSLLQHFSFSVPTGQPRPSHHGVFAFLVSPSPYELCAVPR

For orientation: pIC50 means the IC50 on a negative log10 scale, so that one unit is a factor of ten. A low value points to a high IC50. Compound `O=C(Nc1cc(C2CC2)ccc1N1CCCC(O)CC1)c1ccc(-c2ccncc2)o1` (racemic) [Example 46, N-(5-cyclopropyl-2-(4-hydroxyazepan-1-yl)phenyl)-5-(pyridin-4-yl)furan-2-carboxamide] showed a pIC50 in assay [1] of 5.82. Further, the IC50 in assay [2] was found to be 1180 nM; in assay [3] it was 8.7 nM; in assay [4], 2130 nM; in assay [5] it was 6240 nM; in assay [6], 1060 nM.

As for `O=C(Nc1cc(C(F)(F)F)ccc1N1CCCC(O)CC1)c1ccc(C2CCOCC2)o1` (racemic) [Example 47, N-(2-(4-hydroxyazepan-1-yl)-5-(trifluoromethyl)-phenyl)-5-(tetrahydro-2H-pyran-4-yl)furan-2-carboxamide], in assay [1], the pIC50 was under 4.52. For the same compound, the IC50 in assay [2] was over 30000 nM; in assay [3], 10.4 nM; in assay [4], over 30000 nM; in assay [5], over 30000 nM; in assay [6], over 30000 nM.

For `O=C(Nc1cc(Cl)ccc1N1CCCC(O)CC1)c1ccc(C2CCOCC2)o1` (racemic) [Example 48, N-(5-chloro-2-(4-hydroxyazepan-1-yl)phenyl)-5-(tetrahydro-2H-pyran-4-yl)furan-2-carboxamide], the pIC50 in assay [1] was 4.80. Besides, the IC50 in assay [2] was 6000 nM; in assay [3], 15 nM; in assay [4], 21100 nM; in assay [5] it was 16800 nM; in assay [6] it was 10300 nM.

In turn, `O=C(Nc1cc(C2CC2)ccc1N1CCCC(O)CC1)c1ccc(C2CCOCC2)o1` (racemic) [Example 49, N-(5-cyclopropyl-2-(4-hydroxyazepan-1-yl)phenyl)-5-(tetrahydro-2H-pyran-4-yl)furan-2-carboxamide] showed a pIC50 in assay [1] of 4.67. In addition, the IC50 in assay [2] stood at 6730 nM; in assay [3], 5.2 nM; in assay [4] it was 17200 nM; in assay [5] it was 7340 nM; in assay [6] it was 7250 nM.

In turn, `CC1(O)CCN(c2ccc(C(F)(F)F)cc2NC(=O)c2ccc(C3CCOCC3)o2)C1` (racemic) [Example 54, N-(2-(3-hydroxy-3-methylpyrrolidin-1-yl)-5-(trifluoromethyl)-phenyl)-5-(tetrahydro-2H-pyran-4-yl)furan-2-carboxamide] gave a pIC50 in assay [1] of 5.15. The IC50 in assay [2] was 6140 nM; in assay [3], 35 nM; in assay [4], 20900 nM; in assay [5] it was over 30000 nM; in assay [6], 6350 nM.

`CC1(O)CCN(c2ccc(C(F)(F)F)cc2NC(=O)c2ccc(-c3ccncc3)o2)C1` (racemic) [Example 55, N-(2-(3-hydroxy-3-methylpyrrolidin-1-yl)-5-(trifluoromethyl)-phenyl)-5-(pyridin-4-yl)furan-2-carboxamide] had a negative-log IC50 (pIC50) in assay [1] of under 4.52. Moreover, the IC50 in assay [2] is 22900 nM; in assay [3] it was 26 nM; in assay [4], over 30000 nM; in assay [5], 13000 nM; in assay [6], over 30000 nM.

As to `O=C(Nc1cc(C(F)(F)F)ccc1N1CCC(O)C1)c1ccc(-c2ccncc2)o1` (racemic) [Example 56, N-(2-(3-hydroxypyrrolidin-1-yl)-5-(trifluoromethyl)-phenyl)-5-(pyridin-4-yl)furan-2-carboxamide], the negative logarithm of the IC50 (pIC50) in assay [1] is 7.40. In addition, the IC50 was 130 nM in assay [2]; 101 nM in assay [3]; 2420 nM in assay [4]; 960 nM in assay [5]; 140 nM in assay [6].

For `O=C(Nc1cc(C(F)(F)F)ccc1N1CCC(O)C1)c1ccc(C2CCOCC2)o1` (racemic) [Example 57, N-(2-(3-hydroxypyrrolidin-1-yl)-5-(trifluoromethyl)-phenyl)-5-(tetrahydro-2H-pyran-4-yl)furan-2-carboxamide], in assay [1], the pIC50 is 4.94. For the same compound, the IC50 in assay [2] is 14500 nM; in assay [3] it was 75 nM; in assay [4], over 30000 nM; in assay [5] it was 9160 nM; in assay [6], 5550 nM.

Turning to `Cc1ccc(N2CCC(C)(O)C2)c(NC(=O)c2ccc(C3CCOCC3)o2)c1` (racemic) [Example 58, N-(2-(3-hydroxy-3-methylpyrrolidin-1-yl)-5-methylphenyl)-5-(tetrahydro-2H-pyran-4-yl)-furan-2-carboxamide], the pIC50 in assay [1] was under 4.52. Further, the IC50 was over 30000 nM in assay [2]; 204 nM in assay [3]; 23200 nM in assay [4]; over 30000 nM in assay [5]; over 30000 nM in assay [6].

In turn, `CC1(O)CCN(c2ccc(C3CC3)cc2NC(=O)c2ccc(C3CCOCC3)o2)C1` (racemic) [Example 59, N-(5-cyclopropyl-2-(3-hydroxy-3-methyl-pyrrolidin-1-yl)phenyl)-5-(tetrahydro-2H-pyran-4-yl)furan-2-carboxamide] gave a negative logarithm of the IC50 (pIC50) in assay [1] of 4.62. Also, the IC50 is 10500 nM in assay [2]; 54 nM in assay [3]; over 30000 nM in assay [4]; 10500 nM in assay [5]; 15000 nM in assay [6].

As to `CC1(O)CCN(c2ccc(Cl)cc2NC(=O)c2ccc(C3CCOCC3)o2)C1` (racemic) [Example 60, N-(5-chloro-2-(3-hydroxy-3-methylpyrrolidin-1-yl)phenyl)-5-(tetrahydro-2H-pyran-4-yl)furan-2-carboxamide], the negative logarithm of the IC50 (pIC50) in assay [1] was under 4.52. Also, the IC50 is 22600 nM in assay [2]; 71 nM in assay [3]; over 30000 nM in assay [4]; over 30000 nM in assay [5]; over 30000 nM in assay [6].

In turn, `CC1(O)CCN(c2ccc(C(F)(F)F)cc2NC(=O)c2ccccn2)CC1` [Example 1, N-(2-(4-hydroxy-4-methylpiperidin-1-yl)-5-(trifluoromethyl)phenyl)picolinamide] gave a pIC50 in assay [1] of under 4.52. Also, the IC50 in assay [2] was found to be 16000 nM; in assay [3], 9 nM; in assay [4], 20900 nM; in assay [5], 15300 nM; in assay [6], 17800 nM.

The compound `CC1(O)CCN(c2ccc(Cl)cc2NC(=O)c2ccccn2)CC1` [Example 2, N-(5-chloro-2-(4-hydroxy-4-methylpiperidin-1-yl)-phenyl)picolinamide] had a pIC50 in assay [1] of under 4.52. The IC50 in assay [2] was determined as 18200 nM; in assay [3], 25 nM; in assay [4], 10000 nM; in assay [5], 5890 nM; in assay [6] it was 13500 nM.

The compound `CC1(O)CCN(c2ccc(C3CC3)cc2NC(=O)c2ccccn2)CC1` [Example 3, N-(5-cyclopropyl-2-(4-hydroxy-4-methylpiperidin-1-yl)phenyl)-picolinamide] gave a negative-log IC50 (pIC50) in assay [1] of under 4.52. The IC50 in assay [2] turned out to be 7160 nM; in assay [3], 19 nM; in assay [4], 17100 nM; in assay [5], 14400 nM; in assay [6] it was 12000 nM.

`CC1(O)CCN(c2ccc(C(F)(F)F)cc2NC(=O)c2ccc(-c3ccncc3)o2)CC1` [Example 4, N-(2-(4-hydroxy-4-methylpiperidin-1-yl)-5-(trifluoromethyl)phenyl)-5-(pyridin-4-yl)furan-2-carboxamide] showed a pIC50 in assay [1] of 5.46. Further, the IC50 in assay [2] stood at 2480 nM; in assay [3] it was 5 nM; in assay [4], 4900 nM; in assay [5] it was 23200 nM; in assay [6], 2480 nM.
